Patent US11458189B2, “Cytoprotective drugs” (BALMES TRANSPLANTATION, priority 2017, dated 2022)
Starred links: 1 amine or outer side, 2 acyl side, 3 side chain; linkers in the order of their positions; H or OH if unused. Positions of bridges follow the written chain, without caps; N, C: chain ends. Non-standard residues stand in square brackets, D forms with d. Residues, ends and D or L forms follow the SMILES beside them. *: point of attachment. hTyr(3S-OH,4S-OH,3'-OSO3H) = N[C@H](C(=O)O)[C@H](O)[C@@H](O)c1ccc(O)c(OS(=O)(=O)O)c1; Orn(4R-OH,5R-OH) = O=C([C@H](C[C@@H](O)[C@@H](O)N[*:3])N[*:1])[*:2]; Pro(3S-OH,4S-Me) = C[C@H]1CN[C@H](C(=O)O)[C@H]1O; X1 = CCCCCOc1ccc(-c2cc(-c3ccc(C(=O)*)cc3)no2)cc1; Gln(3R-OH) = NC(=O)C[C@@H](O)[C@H](N)C(=O)O; Hyp = O=C(O)[C@@H]1C[C@@H](O)CN1

Test system: Bovine Brain Microvascular Endothelial Cells (BBMEC)
Test: Oxygen and glucose deprivation followed by replenishment, cell survival (calcein AM), BBMEC
Type: cell-based
Method: Anidulafungin and micafungin were tested on Human Renal Glomerular Endothelial Cells (HRGEC, Innoprot P10665), on Human Renal Proximal Tubular Epithelial Cells (HRPTEpiC, Innoprot P10662), on Human Astrocytes (HA, caltag SC-1800), on Human Cardiac Microvascular Endothelial Cells (HCMEC, Caltag SC-6000), on Human Hepatic Sinusoidal Endothelial Cells (HHSEC, Caltag SC-5000), on Rat Primary Kidney Glomerular Endothelial cells (Cellbiologics, RN-6014G) and on Bovine Brain Microvascular Endothelial Cells (BBMEC, Caltag SC-B100).
In a first phase, these isolated, purified and cryopreserved cells are thawed and multiplied according to the supplier's recommendations in T75 or T175 flasks pre-coated with 2 μg of fibronectin/[…] (CORNING) for HRGEC, HCMEC, HHSEC and BBMEC, or 2 μg poly-L-lysin/cm^2 (Caltag SC-0403) for HRPTEpiC and HA, or 15 mL/flask 175 cm^2 gelatin-based solution (Cellbiologics) in the presence of endothelial cell supplemented growth medium ECM (P60104, INNOPROT, Caltag, SC-1001) for HRGEC, HCMEC, HHSEC, RPKGEC or BBMEC, or astrocyte cell supplemented growth medium AM (Caltag SC-1801) for HA or epithelial cell supplemented growth medium EpiCM (P60106, INNOPROT) for HRPTEpiC, at 37° C. under 5% CO2 and saturated humidity until their confluency. They are then harvested by trypsinization according to the method described by the supplier for exactly 5 minutes and then reseeded in new flasks a maximum of three times.
To carry out the oxygen and glucose deprivation test followed by their replenishment, the cells will be seeded in 96-well black plates with transparent flat bottom (GREINER). Once a sufficient number of cells has been obtained to allow seeding of 2000 to 15000 cells per well of 96-well plates depending on the cell type, the cells are seeded in these 96-well plates previously coated with an extracellular matrix as listed above for the flasks. The cells are cultured for 5 to 8 days according to the cell type, in the presence of the same growth medium as in the flask as described above except for HRGEC and HRPTEpiC for which DMEM (DUTSCHER) with 1 g/L of supplemented glucose is used, at 37° C. under 5% CO2 and saturated humidity to obtain confluency.
On the first day of oxygen and glucose deprivation, (5th, 6th, 7th or 8th day of culture), the culture conditions are drastically changed. The medium of all plates is removed and replaced by DMEM (DUTSCHER) medium without glucose and supplemented only with 1% penicillin-streptomycin (DUTSCHER). Anidulafungin or micafungin dissolved in dimethyl sulfoxide (DMSO) is then added to each well at the desired concentration, resulting in a maximum of 1% DMSO, and the plates are placed under hypoxia at <1% 02 and 5% CO2 at 37° C. for 24 hours of culture. Each compound was tested in a concentration range.
After 24 hours, the growth medium is changed and replaced by a richer medium, DMEM (DUTSCHER) at 1 g/L glucose and 2% FBS (INNOPROT) and 1% penicillin-streptomycin (DUTSCHER). These media will have been pre-equilibrated at 37° C. in advance. The cells are then returned to culture at 37° C. under 20% 02 and 5% CO2 for 22h.
After 22 hours of reoxygenation, the potential protective effect of anidulafungin or micafungin is measured by a cell viability test using calcein AM (CORNING), which is a dye substrate. The calcein AM can easily cross the cell membrane of the viable cells. The AM ester groups mask the part of the molecule that chelates calcium. Once inside the cells, the (non-fluorescent) calcein AM is hydrolyzed to (fluorescent) calcein by endogenous esterases. The resulting calcein molecule binds to calcium inside the cell and remains trapped inside the cell. These molecules emit strong green fluorescence when subjected to […] of a particular wavelength (495 nm). Since dead cells lack esterase activity, only living cells are labelled.
This cell viability test is performed in two steps. […]

CCCCCOc1ccc(-c2cc(-c3ccc(C(=O)N[C@H]4C[C@@H](O)[C@@H](O)NC(=O)[C@@H]5[C@@H](O)[C@@H](C)CN5C(=O)[C@H]([C@H](O)CC(N)=O)NC(=O)[C@H]([C@H](O)[C@@H](O)c5ccc(O)c(OS(=O)(=O)O)c5)NC(=O)[C@@H]5C[C@@H](O)CN5C(=O)[C@H]([C@@H](C)O)NC4=O)cc3)no2)cc1 [Micafungin, {5-[(1S,2S)-2-[(3S,6S,9S,11R,15S,18S,20R,21R,24S,25S,26S)-3-[(1R)-2-carbamoyl-1-hydroxyethyl]-11,20,21,25-tetrahydroxy-15-[(1R)-1-hydroxyethyl]-26-methyl-2,5,8,14,17,23-hexaoxo-18-[(4-{5-[4-(pentyloxy)phenyl]-1,2-oxazol-3-yl}benzene)amido]-1,4,7,13,16,22-hexaazatricyclo[22.3.0.0]heptacosan-6-yl]-1,2-dihydroxyethyl]-2-hydroxyphenyl}oxidanesulfonic acid] (X1-[Orn(4R-OH,5R-OH)]T[Hyp][hTyr(3S-OH,4S-OH,3'-OSO3H)][Gln(3R-OH)][Pro(3S-OH,4S-Me)]; lactam 1-C)
Globalfluo assay 1 ([Micafungin] log μM 0): 1369504 arbitrary units | Globalfluo assay 2 ([Micafungin] log μM 0): 1354112 arbitrary units | Globalfluo assay 3 ([Micafungin] log μM 0): 1230715 arbitrary units | Mean globalfluo ([Micafungin] log μM 0): 1318110 arbitrary units | Survival rate (%) ([Micafungin] log μM 0): 23% | Globalfluo assay 1 ([Micafungin] log μM 0.4771213): 2106751 arbitrary units | Globalfluo assay 2 ([Micafungin] log μM 0.4771213): 1655153 arbitrary units | Globalfluo assay 3 ([Micafungin] log μM 0.4771213): 1618365 arbitrary units | Mean globalfluo ([Micafungin] log μM 0.4771213): 1793423 arbitrary units | Survival rate (%) ([Micafungin] log μM 0.4771213): 46% | Globalfluo assay 1 ([Micafungin] log μM 0.7781513): 1732851 arbitrary units | Globalfluo assay 2 ([Micafungin] log μM 0.7781513): 1742799 arbitrary units | Globalfluo assay 3 ([Micafungin] log μM 0.7781513): 1796080 arbitrary units | Mean globalfluo ([Micafungin] log μM 0.7781513): 1757243 arbitrary units | Survival rate (%) ([Micafungin] log μM 0.7781513): 44% | Globalfluo assay 1 ([Micafungin] log μM 0.90309): 3787727 arbitrary units | Globalfluo assay 2 ([Micafungin] log μM 0.90309): 1942995 arbitrary units | Globalfluo assay 3 ([Micafungin] log μM 0.90309): 2729816 arbitrary units | Mean globalfluo ([Micafungin] log μM 0.90309): 2820179 arbitrary units | Survival rate (%) ([Micafungin] log μM 0.90309): 96% | Globalfluo assay 1 ([Micafungin] log μM 1): 3519337 arbitrary units | Globalfluo assay 2 ([Micafungin] log μM 1): 3058877 arbitrary units | Globalfluo assay 3 ([Micafungin] log μM 1): 3179364 arbitrary units | Mean globalfluo ([Micafungin] log μM 1): 3252526 arbitrary units | Survival rate (%) ([Micafungin] log μM 1): 117% | Globalfluo assay 1 ([Micafungin] log μM 1.079181): 2865371 arbitrary units | Globalfluo assay 2 ([Micafungin] log μM 1.079181): 2913567 arbitrary units | Globalfluo assay 3 ([Micafungin] log μM 1.079181): 3561196 arbitrary units | Mean globalfluo ([Micafungin] log μM 1.079181): 3113378 arbitrary units | Survival rate (%) ([Micafungin] log μM 1.079181): 110% | Globalfluo assay 1 ([Micafungin] log μM 1.176091): 2994828 arbitrary units | Globalfluo assay 2 ([Micafungin] log μM 1.176091): 3496204 arbitrary units | Globalfluo assay 3 ([Micafungin] log μM 1.176091): 3106542 arbitrary units | Mean globalfluo ([Micafungin] log μM 1.176091): 3199191 arbitrary units | Survival rate (%) ([Micafungin] log μM 1.176091): 114% | Globalfluo assay 1 ([Micafungin] log μM 1.30103): 3526958 arbitrary units | Globalfluo assay 2 ([Micafungin] log μM 1.30103): 3025877 arbitrary units | Globalfluo assay 3 ([Micafungin] log μM 1.30103): 3586726 arbitrary units | Mean globalfluo ([Micafungin] log μM 1.30103): 3379854 arbitrary units | Survival rate (%) ([Micafungin] log μM 1.30103): 123% | Globalfluo assay 1 ([Micafungin] log μM 1.477121): 2506989 arbitrary units | Globalfluo assay 2 ([Micafungin] log μM 1.477121): 2361926 arbitrary units | Globalfluo assay 3 ([Micafungin] log μM 1.477121): 2557219 arbitrary units | Mean globalfluo ([Micafungin] log μM 1.477121): 2475378 arbitrary units | Survival rate (%) ([Micafungin] log μM 1.477121): 79% | Globalfluo assay 1 ([Micafungin] log μM −0.5228788): 1907644 arbitrary units | Globalfluo assay 2 ([Micafungin] log μM −0.5228788): 993296 arbitrary units | Globalfluo assay 3 ([Micafungin] log μM −0.5228788): 1867099 arbitrary units | Mean globalfluo ([Micafungin] log μM −0.5228788): 1589346 arbitrary units | Survival rate (%) ([Micafungin] log μM −0.5228788): 36% | Globalfluo assay 1 ([Micafungin] log μM −1): 1108584 arbitrary units | Globalfluo assay 2 ([Micafungin] log μM −1): 1249769 arbitrary units | Globalfluo assay 3 ([Micafungin] log μM −1): 1224251 arbitrary units | Mean globalfluo ([Micafungin] log μM −1): 1194201 arbitrary units | Survival rate (%) ([Micafungin] log μM −1): 17% | Globalfluo assay 1 ([Micafungin] log μM −2): 1778372 arbitrary units | Globalfluo assay 2 ([Micafungin] log μM −2): 817005 arbitrary units | Globalfluo assay 3 ([Micafungin] log μM −2): 1173090 arbitrary units | Mean globalfluo ([Micafungin] log μM −2): 1256156 arbitrary units | Survival rate (%) ([Micafungin] log μM −2): 20%
